Measurements reported in PubChem BioAssay AID1963862 (Molecular Pharmacology Branch, DTP, NCI, 2024).

Test system: KRAS patient-derived spheroids with HUVEC/MSC, viability
Assay: Anticancer human tumor 941728-121-R-J1-PDC patient-derived lung adenocarcinoma cell line growth inhibition [KRAS2]
Conditions: for IC50: curve of first compound; for viability, T/C: stronger effect = lower value
Procedure, shortened: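 KRAS-mutant tumor cells were grown as spheroids with HUVEC endothelial cells and human MSCs as stroma. Targeted agents were tested alone and with KRAS pathway inhibitors. Doses started at or near clinical Cmax, or 10 microM, descending half-log.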

[1] = second compound 0.1 µM, first compound 0.0316 µM
[2] = second compound 0.1 µM, first compound 0.1 µM
[3] = second compound 0.1 µM, first compound 0.316 µM
[4] = second compound 0.1 µM, first compound 1 µM
[5] = second compound 0.1 µM, first compound 3.16 µM
[6] = second compound 0.1 µM, first compound 10 µM
[7] = second compound 0.316 µM, first compound 0.0316 µM
[8] = second compound 0.316 µM, first compound 0.1 µM
[9] = second compound 0.316 µM, first compound 0.316 µM
[10] = second compound 0.316 µM, first compound 1 µM
[11] = second compound 0.316 µM, first compound 3.16 µM
[12] = second compound 0.316 µM, first compound 10 µM
[13] = second compound 1 µM, first compound 0.0316 µM
[14] = second compound 1 µM, first compound 0.1 µM
[15] = second compound 1 µM, first compound 0.316 µM
[16] = second compound 1 µM, first compound 1 µM
[17] = second compound 1 µM, first compound 3.16 µM
[18] = second compound 1 µM, first compound 10 µM
[19] = second compound 3.16 µM, first compound 0.0316 µM
[20] = second compound 3.16 µM, first compound 0.1 µM
[21] = second compound 3.16 µM, first compound 0.316 µM
[22] = second compound 3.16 µM, first compound 1 µM
[23] = second compound 3.16 µM, first compound 3.16 µM
[24] = second compound 3.16 µM, first compound 10 µM
[25] = second compound 10 µM, first compound 0.0316 µM
[26] = second compound 10 µM, first compound 0.1 µM
[27] = second compound 10 µM, first compound 0.316 µM
[28] = second compound 10 µM, first compound 1 µM
[29] = second compound 10 µM, first compound 3.16 µM
[30] = second compound 10 µM, first compound 10 µM
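Note: spheroids exposed to agents for seven days before readout.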

Row | Structure (SMILES) | IC50 (second compound 0.1 µM) | IC50 (second compound 0.316 µM) | IC50 (second compound 1 µM) | IC50 (second compound 3.16 µM) | IC50 (second compound 10 µM) | viability, T/C [1] | viability, T/C [2] | viability, T/C [3] | viability, T/C [4] | viability, T/C [5] | viability, T/C [6] | viability, T/C [7] | viability, T/C [8] | viability, T/C [9] | viability, T/C [10] | viability, T/C [11] | viability, T/C [12] | viability, T/C [13] | viability, T/C [14] | viability, T/C [15] | also measured
1 | CC1OCC2(CCN(c3cnc(Sc4ccnc(N)c4Cl)c(N)n3)CC2)C1N (stereo not given) + CNCc1ccccc1-c1csc(C(C)Nc2nc(C)nc3cc(OC)c(OC)cc23)c1 | < 31.6 nM | < 31.6 nM | < 31.6 nM | < 31.6 nM | < 31.6 nM | 49.5% | 38.1% | 38.1% | 32.5% | 35.3% | 34% | 41% | 34.7% | 31.2% | 28.9% | 30.2% | 30.1% | 37.6% | 36.6% | 28.2% | viability, T/C [16]: 26.2%; viability, T/C [17]: 20.9%; viability, T/C [18]: 17.8%; viability, T/C [19]: 5.49%; viability, T/C [20]: 2.19%; viability, T/C [21]: 2.26%; viability, T/C [22]: 2.13%; viability, T/C [23]: 0.72%; viability, T/C [24]: 0.85%; viability, T/C [25]: 0.11%; viability, T/C [26]: 0.12%; viability, T/C [27]: 0.4%; viability, T/C [28]: 0.22%; viability, T/C [29]: 1.25%; viability, T/C [30]: 0.16%
2 | O=C(c1cc(Cc2n[nH]c(=O)c3ccccc23)ccc1F)N1CCN(C(=O)C2CC2)CC1 + CNCc1ccccc1-c1csc(C(C)Nc2nc(C)nc3cc(OC)c(OC)cc23)c1 | > 10000 nM | < 31.6 nM | < 31.6 nM | < 31.6 nM | < 31.6 nM | 59% | 65.2% | 53.3% | 54.6% | 65.6% | 67.8% | 47.1% | 45.5% | 52.7% | 55.1% | 51.4% | 67% | 40.2% | 48% | 47.3% | viability, T/C [16]: 51.7%; viability, T/C [17]: 49.8%; viability, T/C [18]: 58.5%; viability, T/C [19]: 0.61%; viability, T/C [20]: 1.87%; viability, T/C [21]: 0.81%; viability, T/C [22]: 0.22%; viability, T/C [23]: 2.29%; viability, T/C [24]: 0.22%; viability, T/C [25]: 0.42%; viability, T/C [26]: 0.09%; viability, T/C [27]: 0.09%; viability, T/C [28]: 0.09%; viability, T/C [29]: 0.2%; viability, T/C [30]: 0.14%
3 | O=C(c1cc(Cc2n[nH]c(=O)c3ccccc23)ccc1F)N1CCN(C(=O)C2CC2)CC1 + COc1cc2nc(C)nc(NC(C)c3cc(N)cc(C(F)(F)F)c3)c2cc1OC1CCOC1 | > 10000 nM | > 10000 nM | > 10000 nM | < 31.6 nM | 46.7 nM | 60% | 105% | 59.7% | 93.4% | 120% | 79.2% | 54.1% | 57.4% | 55.9% | 56.9% | 64.4% | 66.2% | 103% | 114% | 126% | viability, T/C [16]: 124%; viability, T/C [17]: 103%; viability, T/C [18]: 100%; viability, T/C [19]: 47.7%; viability, T/C [20]: 50.5%; viability, T/C [21]: 49%; viability, T/C [22]: 59.8%; viability, T/C [23]: 56.9%; viability, T/C [24]: 54.9%; viability, T/C [25]: 60.5%; viability, T/C [26]: 29.5%; viability, T/C [27]: 26.1%; viability, T/C [28]: 33.6%; viability, T/C [29]: 20.9%; viability, T/C [30]: 27.6%
